Measurements as given in BindingDB's records for doi:10.1021/bi200855m (Whitman College, 2011).

Molecular target: T1, 2,6-dichloro-p-hydroquinone 1,2-dioxygenase (Sphingobium chlorophenolicum, UniProt Q9ZBB0)
T1 sequence (Q9ZBB0 whole entry): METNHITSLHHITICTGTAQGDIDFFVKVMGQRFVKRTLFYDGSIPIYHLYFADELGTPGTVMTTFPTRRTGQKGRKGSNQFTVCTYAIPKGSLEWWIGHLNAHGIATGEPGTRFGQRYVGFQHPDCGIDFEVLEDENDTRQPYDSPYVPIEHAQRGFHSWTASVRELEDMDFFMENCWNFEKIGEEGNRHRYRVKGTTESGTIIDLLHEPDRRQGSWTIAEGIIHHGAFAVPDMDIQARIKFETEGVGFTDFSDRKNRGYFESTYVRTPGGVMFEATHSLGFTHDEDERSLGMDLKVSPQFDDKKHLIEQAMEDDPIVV
Assay: Inhibition Assay
Procedure: The rate of the enzymatic reaction was determined by measuring product formation by a spectrophotometric assay developed by Xun and co-worker with modification. The assay was performed on a Cary 50 Bio or Cary 5000 UV-visible spectrophotometer (Varian).

## Oc1c(Cl)cccc1Cl [2,6-Dichlorophenol]
  Ki: 48 µM

## Oc1c(Br)cccc1Br
  Ki: 13 µM
